In patent publication US9670514B2, “Method for producing polysaccharide” (SANYO CHEMICAL INDUSTRIES, LTD., priority 2011, dated 2017):

Target: T1, hyaluronan synthase (Streptococcus pyogenes, UniProt P0C0H0, K60N)
T1 construct: FLAG; made in house; host or cells: Escherichia coli SURE, plasmid pKK223-3
T1 sequence (P0C0H0 1-419 K60N): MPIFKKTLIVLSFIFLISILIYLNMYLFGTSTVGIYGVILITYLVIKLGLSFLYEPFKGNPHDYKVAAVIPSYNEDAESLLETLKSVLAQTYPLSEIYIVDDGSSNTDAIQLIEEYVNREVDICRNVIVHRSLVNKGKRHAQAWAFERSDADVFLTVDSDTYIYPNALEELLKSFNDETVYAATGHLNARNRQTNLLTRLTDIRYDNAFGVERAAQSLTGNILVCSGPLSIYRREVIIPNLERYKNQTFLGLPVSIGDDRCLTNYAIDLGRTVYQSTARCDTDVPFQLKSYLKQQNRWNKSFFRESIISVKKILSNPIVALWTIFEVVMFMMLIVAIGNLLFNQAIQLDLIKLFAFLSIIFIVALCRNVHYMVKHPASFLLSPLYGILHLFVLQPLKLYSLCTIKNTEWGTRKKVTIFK
Assay: Inhibitory concentration IC50 of uridine diphosphate against hyaluronan synthase (HPLC of hyaluronan)
Format: biochemical, Streptococcus equisimilis
Conditions: hyaluronan synthase (B-1) 1.5 U/mL, 40° C., pH 7.5
Protocol: An enzyme reaction solution (I) containing specific amounts of polysaccharide synthase (B), ribonucleoside diphosphate-monosaccharide (A), ribonucleoside diphosphate, pH adjuster (K), and water is prepared, which is adjusted to a specific temperature and a specific pH. […]
A portion (e.g., 100 μL) of the enzyme reaction solution (I) prepared is extracted immediately after preparation and at certain time intervals (e.g., 5 min). […] Using liquid chromatography (hereinafter abbreviated as HPLC), the amount of polysaccharide in each extracted reaction solution is quantitated. An initial enzyme reaction velocity v (M/s) is calculated from the difference ΔP (ΔP=Ph−P0) in peak areas and a calibration curve based on the peak areas of the polysaccharide, wherein P0 is the peak area immediately after preparation of the enzyme reaction solution (I), and Ph is the peak area after h hour(s) from preparation. […]

## O=c1ccn([C@@H]2O[C@H](COP(=O)(O)OP(=O)(O)O)[C@@H](O)[C@H]2O)c(=O)[nH]1 [uridine diphosphate]
  IC50: 110 µM
